# Data published in patent publication US20090054317A1 (priority 2006, published 2009).
# System: toxin-induced cell death in RAW264.7 cells
# Settings: mouse
compound,measurement,value
CC(=O)N[C@@H](C)C(=O)N[C@@H](Cc1c[nH]c2ccccc12)C(=O)N1CCC[C@H]1C(=O)N[C@@H](CC(C)C)C(=O)N[C@@H](CO)C(=O)N[C@@H](CCC(N)=O)C(=O)N[C@@H](CC(C)C)C(=O)N[C@@H](CC(=O)O)C(=O)N[C@@H](Cc1c[nH]cn1)C(=O)N[C@@H](CO)C(=O)N[C@@H](Cc1ccc(O)cc1)C(=O)N[C@@H](CC(N)=O)C(=O)N[C@@H](CS)C(N)=O [corresponding monovalent peptide],IC50,> 2 mM
